Test results published in PMC5571287 (Antimicrobial Agents and Chemotherapy, 2017).
Where two headings read alike, the source gives them in different places.

Key:
RSV A 1998/3-2 = test: CPE 2, neutral red 96-well CPE assay in HEp-2; format: cell-based; details: human respiratory syncytial virus
Description: (§1) For RSV A 2001/3-12, 1998/3-2, and USU⃥v1225, CPE was induced in HEp-2 cells for 7 days and the plates were then stained with neutral red dye for approximately 2 h. The intracellular incorporated dye was extracted in 50:50 Sorensen citrate buffer-ethanol and the absorbance read on a spectrophotometer. The optical density (OD) of test wells was converted to percentage of cell and virus controls. […] The virus inocula were ∼63 50% cell culture infectious doses (CCID50) per well for 2001/3-12, ∼40 CCID50/well for 1998/3-2, and ∼32 CCID50/well for USU\v1225. This assay was conducted in Utah State University (Logan, UT).

RSV A 2001/3-12 = test: CPE 2, neutral red 96-well CPE assay in HEp-2; format: cell-based; details: human respiratory syncytial virus
Description: as §1

RSV A USU\v1225 = test: CPE 2, neutral red 96-well CPE assay in HEp-2; format: cell-based; details: human respiratory syncytial virus
Description: as §1

RSVA 492 [1] = test: microbe, parasite or virus in culture; format: cell-based; details: human respiratory syncytial virus, RSVA 492, clinical
RSVB 1276 = test: microbe, parasite or virus in culture; format: cell-based; details: human respiratory syncytial virus, RSVB 1276, clinical, 3 parameter curve fit
RSVB 1262 = test: microbe, parasite or virus in culture; format: cell-based; details: human respiratory syncytial virus, RSVB 1262, clinical
[2] = system: Influenza virus H1N1 (A/PR/34 strain); test: microbe, parasite or virus in culture; format: cell-based; details: Influenza virus H1N1, A549
Rhinovirus 16 = test: microbe, parasite or virus in culture; format: cell-based, human rhinovirus; details: Rhinovirus 16, HeLa
[3] = Antiviral panel: cytotoxicity; format: cell-based; details: human, Huh-7 cells with HCV GT1b replicon; Huh-7, GT1b replicon
RSV A2 [4] = test: RSV F protein cell-based ELISA in BEAS-2B cells, washout / nonwashout; details: human respiratory syncytial virus, read-out: IC50, F protein expressed on cell surfaces
Description: Approximately 72 h after BEAS-2B cells were seeded in 96-well plates (at 4 × 10^4/ml; 100 μl/well), the medium in the plates was removed and replaced with 200 μl of fresh LHC-8 medium. […] For nonwashout plates, the compounds and DMSO (1 μl/well) were applied immediately after infection. On day 3 postinfection, supernatant was aspirated and the cells were fixed with 4% formaldehyde (100 μl in PBS solution) for 20 min at room temperature (RT), washed three times with wash buffer (WB) (200 μl; PBS containing 0.05% Tween 20), and incubated with blocking buffer (100 μl; 5% bovine serum albumin [BSA] in wash buffer) for 1 h. […] Abcam plc, Cambridge, UK). After a washing, cells were incubated with a horseradish peroxidase (HRP)-conjugated anti-mouse IgG antibody (50 μl/well; 1:2,000, Abcam) for 1 h. Tetramethylbenzidine (TMB) substrate (50 μl) was then added after two washings with WB and one with PBS, and the reaction was stopped by the addition of aqueous sulfuric acid (2 N; 50 μl/well). The resultant signal was determined colorimetrically (OD at 450 nm [OD450] with a reference wavelength of 655 nm) in a microplate reader (Multiskan FC; Thermo Fisher Scientific). Cells were then washed, and 0.5% crystal violet solution ([…]) was applied for 30 min. […] The measured F protein signals (OD450 − OD655 readings) were corrected for cell number (OD595 readings) by dividing the OD450–655 by the OD595 readings.

RSV A2 [5] = test: RSV A2-infected BALB/c mice, virus load in lung homogenate; format: in vivo
[6] = target: RSV RdRp activity in crude RSV A L-P complex (Human respiratory syncytial virus A, UniProt P28887); test: biochemical; details: read-out: RdRp activity IC90
Sequence of RSV RdRp activity in crude RSV A L-P complex (P28887 whole entry): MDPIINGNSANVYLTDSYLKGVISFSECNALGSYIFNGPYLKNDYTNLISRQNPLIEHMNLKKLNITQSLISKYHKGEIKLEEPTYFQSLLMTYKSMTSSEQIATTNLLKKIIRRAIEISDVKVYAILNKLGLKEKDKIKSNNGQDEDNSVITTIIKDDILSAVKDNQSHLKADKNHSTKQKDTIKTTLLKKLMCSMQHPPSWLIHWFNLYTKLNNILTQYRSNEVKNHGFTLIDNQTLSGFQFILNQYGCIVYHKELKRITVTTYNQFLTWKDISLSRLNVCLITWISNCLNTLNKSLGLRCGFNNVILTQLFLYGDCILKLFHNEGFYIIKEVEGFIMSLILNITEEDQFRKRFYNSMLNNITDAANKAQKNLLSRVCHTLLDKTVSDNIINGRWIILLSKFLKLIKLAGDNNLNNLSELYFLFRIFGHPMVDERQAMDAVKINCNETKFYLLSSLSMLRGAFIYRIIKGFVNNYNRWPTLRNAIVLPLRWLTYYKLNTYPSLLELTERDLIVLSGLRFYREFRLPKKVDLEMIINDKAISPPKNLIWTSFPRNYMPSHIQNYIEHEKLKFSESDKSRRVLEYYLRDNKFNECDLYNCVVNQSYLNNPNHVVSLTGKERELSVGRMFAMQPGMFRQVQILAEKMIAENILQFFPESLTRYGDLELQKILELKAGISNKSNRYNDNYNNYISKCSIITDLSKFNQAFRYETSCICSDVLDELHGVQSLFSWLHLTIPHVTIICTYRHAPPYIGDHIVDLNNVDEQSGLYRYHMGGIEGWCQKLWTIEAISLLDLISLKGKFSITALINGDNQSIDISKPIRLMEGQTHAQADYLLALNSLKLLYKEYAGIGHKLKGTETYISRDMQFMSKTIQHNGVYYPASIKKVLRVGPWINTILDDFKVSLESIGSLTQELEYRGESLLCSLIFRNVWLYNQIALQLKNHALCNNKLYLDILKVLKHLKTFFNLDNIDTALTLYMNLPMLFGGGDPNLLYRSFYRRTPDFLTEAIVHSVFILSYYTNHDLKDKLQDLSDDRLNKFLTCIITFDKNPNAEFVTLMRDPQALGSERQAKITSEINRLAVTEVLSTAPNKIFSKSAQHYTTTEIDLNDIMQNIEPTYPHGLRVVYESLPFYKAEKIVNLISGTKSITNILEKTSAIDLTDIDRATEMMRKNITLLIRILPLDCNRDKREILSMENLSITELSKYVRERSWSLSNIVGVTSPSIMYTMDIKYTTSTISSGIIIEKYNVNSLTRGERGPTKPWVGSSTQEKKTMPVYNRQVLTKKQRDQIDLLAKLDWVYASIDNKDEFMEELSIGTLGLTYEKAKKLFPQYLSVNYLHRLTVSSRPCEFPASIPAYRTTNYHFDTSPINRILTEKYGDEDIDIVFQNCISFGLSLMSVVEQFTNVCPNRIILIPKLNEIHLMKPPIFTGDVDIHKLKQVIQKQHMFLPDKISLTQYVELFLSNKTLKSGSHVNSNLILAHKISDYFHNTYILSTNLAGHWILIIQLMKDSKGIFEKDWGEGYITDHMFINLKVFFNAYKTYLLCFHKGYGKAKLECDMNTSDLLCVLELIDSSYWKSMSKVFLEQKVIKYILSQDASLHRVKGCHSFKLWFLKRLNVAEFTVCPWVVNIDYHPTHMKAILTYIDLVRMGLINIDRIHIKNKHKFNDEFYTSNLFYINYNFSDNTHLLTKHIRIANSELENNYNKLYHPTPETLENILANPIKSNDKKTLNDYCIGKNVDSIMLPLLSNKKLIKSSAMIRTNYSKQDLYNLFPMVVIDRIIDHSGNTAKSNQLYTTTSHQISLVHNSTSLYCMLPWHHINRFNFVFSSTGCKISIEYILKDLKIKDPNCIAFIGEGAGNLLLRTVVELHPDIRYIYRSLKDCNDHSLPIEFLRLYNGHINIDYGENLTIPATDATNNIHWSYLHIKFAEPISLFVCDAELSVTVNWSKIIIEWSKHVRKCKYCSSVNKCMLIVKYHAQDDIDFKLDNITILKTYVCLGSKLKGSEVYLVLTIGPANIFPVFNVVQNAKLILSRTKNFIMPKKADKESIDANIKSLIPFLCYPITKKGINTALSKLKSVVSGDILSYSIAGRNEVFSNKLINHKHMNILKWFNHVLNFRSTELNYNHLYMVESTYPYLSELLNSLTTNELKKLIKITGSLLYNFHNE
Sequence of RSV RdRp activity in crude RSV A L-P complex (P03421 whole entry, further chain): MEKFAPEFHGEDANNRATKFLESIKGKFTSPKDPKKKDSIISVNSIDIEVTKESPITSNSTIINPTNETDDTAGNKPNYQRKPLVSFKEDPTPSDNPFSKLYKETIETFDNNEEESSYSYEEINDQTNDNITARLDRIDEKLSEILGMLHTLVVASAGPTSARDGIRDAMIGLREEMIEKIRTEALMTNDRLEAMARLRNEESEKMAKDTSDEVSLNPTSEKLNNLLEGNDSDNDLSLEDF

[7] = target: minigenome construct comprising the L protein, M2-1, N, and P of RSV A2 (Human respiratory syncytial virus A, UniProt P28887); test: cell-based
Sequence of minigenome construct comprising the L protein, M2-1, N, and P of RSV A2 (P28887 whole entry): as the sequence (P28887 whole entry) above
Sequence of minigenome construct comprising the L protein, M2-1, N, and P of RSV A2 (P03421 whole entry, further chain): as the sequence (P03421 whole entry, further chain) above

[8] = system: human mitochondrial polymerase; test: Human polymerase inhibition in vitro (data not shown); format: biochemical; details: up to 1 μM
in vitro [9] = details: rhesus monkey
in vitro [10] = details: African green monkey
[11] = Cell viability in HEp-2 cells (resazurin); details: human, HEp-2 cells
HEp-2 cells = test: Cell viability in HEp-2 cells (resazurin); details: concentrations up to 14 μM
RSV A2 [12] = details: human respiratory syncytial virus
RSVA 492 [13] = details: human respiratory syncytial virus
[14] = system: Wild type RSVA2 (vehicle control virus); test: CPE assay, vehicle control (wild type) RSV A2 virus; details: human respiratory syncytial virus
[15] = intranasal 0.2 mg/ml (0.19 mg/kg)

Structure (SMILES): Cc1cnc(N2CC3(CCOCC3)C2)c(C(=O)Nc2ccc(C(=O)N3CCc4cc(C(=O)Nc5c(C)cccc5F)sc4-c4ccccc43)cc2)c1 [PC786, N-(2-fluoro-6-methylphenyl)-6-(4-(5-methyl-2-(7-oxa-2-azaspiro[3.5]nonan-2-yl)nicotinamido)benzoyl)-5,6-dihydro-4H-benzo[b]thieno[2,3-d]azepine-2-carboxamide]
- IC50 (RSV A 1998/3-2): 2.5 nM
- IC50 (RSV A 2001/3-12): 3.2 nM
- IC50 (RSV A USU\v1225): 1.3 nM
- IC50 (RSVA 492 [1]; read-out: CPE IC50): 0.42 nM
- IC90 (RSVA 492 [1]; read-out: CPE IC90): 0.57 nM
- IC50 (RSVB 1276; read-out: CPE IC50): 50.6 nM
- IC90 (RSVB 1276; read-out: CPE IC90): 821 nM
- IC50 (RSVB 1262; read-out: CPE IC50): 14.5 nM
- IC90 (RSVB 1262; read-out: CPE IC90): 692 nM
- IC90 or IC95 [2]: >14000 nM
- IC50 ([2]; unidentified influenza virus): > 14000 nM
- IC50 (Rhinovirus 16; Enterovirus): > 14000 nM
- IC90 or IC95 (Rhinovirus 16): >14000 nM
- CC50 at 3 days [3]: > 14000 nM
- IC50 (RSV A2 [4]; 2 h exposure then 24-h washout before inoculation): 0.792 nM
- IC50 (RSV A2 [4]; nonwashout (sustained presence of drug)): 0.129 nM
- Virus titer of lung homogenate, interquartile range (RSV A2 [5]; [15]): 1.9–3.0 log PFU/ml
- Virus titer of lung homogenate, median (RSV A2 [5]; [15]): 2.5 log PFU/ml
- Virus titer of lung homogenate, geometric mean ± SD (RSV A2 [5]; intranasal 0.2 mg/ml (0.19 mg/kg) once daily days −1 to 3): 2.4 ± 0.59 log PFU/ml
- Virus titer of lung homogenate, median (RSV A2 [5]; intranasal 2.0 mg/ml (1.9 mg/kg)): <0.33 (LOQ) log PFU/ml
- Virus titer of lung homogenate, median (RSV A2 [5]; intratracheal 2.0 mg/ml (3.2 mg/kg)): <0.33 (LOQ) log PFU/ml
- IC90 [6]: 21.8 nM
- inhibition at 0.14 µM ([7]; HEp-2, at 140 nM, read-out: maximum inhibition achieved): 100%
- IC90 ([7]; luciferase, HEp-2, wild-type L protein): 1.54 nM
- inhibitory effects on human mitochondrial polymerase [8]: no measurable inhibitory effects
- CC50 (in vitro [9]): > 14000 nM
- CC50 (in vitro [10]): > 14000 nM
- CC50 [11]: > 14000 nM
- Cell viability (HEp-2 cells): did not affect cell viability
- IC50 (RSV A2 [12]; HEp-2, read-out: PCR IC50 (0.3 Log PFUe reduction) (converted)): 1.52 nM
- IC90 (RSV A2 [12]; HEp-2, read-out: PCR IC90 (1 Log PFUe reduction) (converted)): 1.69 nM
- IC50 (RSVA 492 [13]; HEp-2, read-out: RSV titre in supernatant IC50 (0.3 Log PFUe reduction) (converted)): 0.43 nM
- IC90 (RSVA 492 [13]; HEp-2, read-out: RSV titre in supernatant IC90 (1 Log PFUe reduction) (converted)): 0.5 nM
- IC50 ([14]; read-out: Wild type RSVA2 IC50): 0.027 nM
- IC90 ([14]; read-out: Wild type RSVA2 IC90): 0.065 nM
